Here are results for two compounds from US6602880B2, “3-phenyl-3,7-diazabicyclo[3.3.1] nonane compounds, process for preparing them, pharmaceutical compositions containing them and use thereof to inhibit cardiac arrhythmia” (priority 2001, dated 2003).

The test system of data set [1] is isolated papillary muscle of the right ventricle of guinea pigs. In words: In vitro functional refractory period on electrically stimulated papillary muscles from guinea-pig hearts. The following applies: concentration prolonging FRP by 12 milliseconds; stimulation 3 Hz; 20 minutes after addition.
Procedure: The heart was quickly removed from guinea pigs which had been sacrificed by a blow to the back of the neck and the papillary muscles of the right ventricle were fixed in organ baths through which temperature-controlled oxygenated nutrient solution flowed. The muscle preparations were electrically stimulated with a frequency of 3 Hz. The test substances were added to the organ baths in increasing concentrations (cumulatively). In each case 20 minutes after addition of the test substance, the functional refractory period was determined by means of a double pulse protocol. In each case a cumulative concentration/action curve was plotted from the measured values. The concentration at which a prolongation of the FRP by 12 milliseconds was achieved was calculated from this as the effective concentration (=FRP-EC+12ms).
Another data set has as its system mice. Briefly: Determination of the minimum toxic dose. In kind it is in vivo. The following applies: mouse p.o.; lowest dose causing death or severe toxic symptoms; maximum dose 300 mg/kg; observed 72 hours. The protocol: Male mice each having a weight of 20 to 25 g were administered maximum doses of 300 mg/kg of the test substance p.o. The animals were observed carefully for toxicity symptoms for 3 hours. Additionally all symptoms and deaths were recorded over a period of 72 hours after administration. Concomitant symptoms were likewise observed and recorded. If death or severe toxic symptoms were observed, further mice were administered increasingly lower doses until toxic symptoms no longer occurred. The lowest dose which caused death or severe toxic symptoms is indicated in the following Table A as the minimum toxic dose.

For data set [2], the system named is anaesthetised guinea pigs. In words: In vivo antiarrhythmic properties (ERP) and blood pressure under tachycardic conditions in anaesthetised guinea pigs. Set-up: species or system guinea pig. The following applies: i.v. The text has this: The effects of the substances on the effective refractory period (=ERP) and the blood pressure on i.v. administration with increased heart rate were investigated on anaesthetised guinea pigs. A bipolar stimulation catheter was inserted into the right ventricle of the animals via a jugular vein under full anaesthesia. The heart rates of the animals were kept at about 150% of their normal heart rates via this catheter by means of electrical stimulation during the entire investigation. A cannula for i.v. administration of the test substances was inserted in the other jugular vein. During the investigation, the systolic and the diastolic arterial blood pressure (=SAP and DAP) were measured in a carotid artery via a pressure gauge (Statham pressure transducer). The test substances were administered i.v. in increasing doses (cumulatively). Before administration of the first dose and in each case 8 minutes after administration of each dose, the ERP was determined by means of a double pulse protocol. The dose at which a prolongation of the ERP to 115% of the starting value was achieved was considered as the effective dose (=ERP-ED115). Effective doses for a hypotensive effect were considered as the dose at which the SAP was decreased to 85% of its starting value (=SAP-ED85), and the dose at which the DAP was decreased to 85% of its starting value (=DAP-ED85).

For another data set, the target named is T1, iKr (HERG) (Homo sapiens, UniProt Q12809).
T1 construct: expressed in transfected cells; host or cells: HEK293 (ATCC CRL-1573), stably transfected
T1 sequence (Q12809 whole entry): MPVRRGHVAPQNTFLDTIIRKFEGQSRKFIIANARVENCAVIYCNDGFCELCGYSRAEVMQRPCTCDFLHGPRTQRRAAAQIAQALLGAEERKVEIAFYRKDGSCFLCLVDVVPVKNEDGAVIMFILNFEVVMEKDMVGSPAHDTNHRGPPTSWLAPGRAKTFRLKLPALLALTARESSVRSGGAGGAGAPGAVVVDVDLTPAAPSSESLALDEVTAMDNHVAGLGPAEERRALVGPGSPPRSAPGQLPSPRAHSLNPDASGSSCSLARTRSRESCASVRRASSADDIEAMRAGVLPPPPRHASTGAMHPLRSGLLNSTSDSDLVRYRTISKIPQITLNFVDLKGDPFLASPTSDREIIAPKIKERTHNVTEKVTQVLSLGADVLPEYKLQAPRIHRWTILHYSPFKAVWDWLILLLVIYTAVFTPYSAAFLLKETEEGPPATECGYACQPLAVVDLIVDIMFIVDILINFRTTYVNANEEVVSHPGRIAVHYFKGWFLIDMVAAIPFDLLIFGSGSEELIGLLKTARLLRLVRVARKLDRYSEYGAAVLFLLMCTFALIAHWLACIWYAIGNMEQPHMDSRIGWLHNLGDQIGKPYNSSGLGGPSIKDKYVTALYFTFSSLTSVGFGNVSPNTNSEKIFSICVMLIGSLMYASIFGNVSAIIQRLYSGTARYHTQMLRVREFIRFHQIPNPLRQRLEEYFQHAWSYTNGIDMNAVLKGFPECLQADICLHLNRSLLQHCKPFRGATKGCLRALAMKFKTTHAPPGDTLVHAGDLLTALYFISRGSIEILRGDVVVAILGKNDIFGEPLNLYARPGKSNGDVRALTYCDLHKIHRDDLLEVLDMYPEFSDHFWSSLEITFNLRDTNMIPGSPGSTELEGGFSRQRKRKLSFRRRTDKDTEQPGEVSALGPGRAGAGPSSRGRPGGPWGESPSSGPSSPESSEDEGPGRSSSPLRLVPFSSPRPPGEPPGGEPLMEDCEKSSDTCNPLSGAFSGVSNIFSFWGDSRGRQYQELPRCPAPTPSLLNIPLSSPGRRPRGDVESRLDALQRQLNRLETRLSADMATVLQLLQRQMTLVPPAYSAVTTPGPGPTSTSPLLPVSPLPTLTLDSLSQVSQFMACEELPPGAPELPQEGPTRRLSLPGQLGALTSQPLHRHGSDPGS
Briefly: Blocking action on rapid delayed rectifier potassium current iKr (HERG), HEK293 cells stably transfected. In kind it is cell-based. The following applies: HEK293 cells stably transfected with HERG. The protocol: The iKr (HERG) can be measured selectively in the manner stated below: to measure the iKr, a cell line (human embryonal kidney cells, HEK293; see e.g. American Tissue Culture Collection (=ATCC) No.: CRL-1573) is used, which is stably transfected with the gene for the iKr (HERG) (cf. Z. Zhou et al., Biophysical Journal 74(1) (1998) 230-241). […] The iKr is determined using the current amplitude at −40 mV holding potential immediately after a 500 ms pulse protocol of −75 mV holding potential at most +10 mV depolarisation. That substance concentration at which 50% of the maximum current is blocked (IC50 %) is determined from the inhibitions of the corresponding current at different substance concentrations.

In data set [3] the test system is isolated perfused rabbit hearts. In words: In vitro potential proarrhythmogenity on isolated perfused rabbit hearts (monophasic action potential). The following applies: three hearts (n=3), one value each; for Instability: control about 7 ms; for Triangulation: control about 90 ms. As to the method:
The extent of the potential proarrhythmogenity of Class III antiarrhythmic substances can be estimated using the measurement of electrophysiological parameters such as “instability” and “triangulation” (see below) on the monophasic action potential, derived from isolated perfused rabbit hearts. The pharmacological test set forth below was performed analogously to the method fundamentally described in L. M. Hondeghem et al., Circulation 103 (2001) 2004-2013 (referred to hereafter as “Hondeghem et al.”), in conjunction with L. M. Hondeghem, Journal of Cardiovascular Electrophysiology 5(8) (1994) 711-721 (referred to hereafter as “Hondeghem”). The hearts were quickly removed from rabbits which had been sacrificed by a blow to the back of the neck, and were immediately perfused in a Langendorff arrangement under constant pressure (80 cm H2O) with temperature-controlled oxygenated nutrient solution. The heart was stimulated with different stimulation protocols using two stimulation electrodes which were each arranged in the region of the right and left crus of the bundle of His (cf. “Hondeghem et al.”). Two further electrodes (one discharge electrode endocardially in the region of the septum of the left ventricle and a reference electrode epicardially on the left ventricle) served to discharge the monophasic action potential.
Using the monophasic action potential duration with different repolarisation levels (APD10-90; “APD10” designates the action potential duration until the occurrence of 10% of repolarisation), the following parameters were derived as indicators of the proarrhythmogenity:
(1) Instability: The change in the APD60 from heartbeat to heartbeat is designated “instability”. Under control conditions, this value is on average about 7 milliseconds (=ms). Greater deviations from this average value towards a longer duration (>7 ms) indicate an increased probability of occurrence for proarrhythmias caused by the test substances investigated.
(2) Triangulation: The repolarisation time in ms from APD30 to ADP90 is designated “triangulation”. Under control conditions, this value is usually about 90 ms.
The results obtained with the method described above on three hearts (n=3) in each case are reproduced in the following Table D.

The subject of the next data set is anaesthetised cats. Briefly: In vivo fibrillation threshold in anaesthetised cats. Details: species or system cat. The following applies: more marked on the atrium than on the ventricle. The text has this:
Such an atrioselective increase in the fibrillation threshold is an indication that the tested compound has a beneficial action profile with a reduced proarrhythmogenity risk.

For another data set, the target named is T2, iKs (Canis lupus familiaris, UniProt A0A8I3N8W8).
T2 construct: the individualised cardiac muscle cells are investigated electrophysiologically using the “whole-cell patch-clamp” method; from tissue; host or cells: isolated dog left ventricular cardiac muscle cells
T2 sequence (A0A8I3N8W8 1-676): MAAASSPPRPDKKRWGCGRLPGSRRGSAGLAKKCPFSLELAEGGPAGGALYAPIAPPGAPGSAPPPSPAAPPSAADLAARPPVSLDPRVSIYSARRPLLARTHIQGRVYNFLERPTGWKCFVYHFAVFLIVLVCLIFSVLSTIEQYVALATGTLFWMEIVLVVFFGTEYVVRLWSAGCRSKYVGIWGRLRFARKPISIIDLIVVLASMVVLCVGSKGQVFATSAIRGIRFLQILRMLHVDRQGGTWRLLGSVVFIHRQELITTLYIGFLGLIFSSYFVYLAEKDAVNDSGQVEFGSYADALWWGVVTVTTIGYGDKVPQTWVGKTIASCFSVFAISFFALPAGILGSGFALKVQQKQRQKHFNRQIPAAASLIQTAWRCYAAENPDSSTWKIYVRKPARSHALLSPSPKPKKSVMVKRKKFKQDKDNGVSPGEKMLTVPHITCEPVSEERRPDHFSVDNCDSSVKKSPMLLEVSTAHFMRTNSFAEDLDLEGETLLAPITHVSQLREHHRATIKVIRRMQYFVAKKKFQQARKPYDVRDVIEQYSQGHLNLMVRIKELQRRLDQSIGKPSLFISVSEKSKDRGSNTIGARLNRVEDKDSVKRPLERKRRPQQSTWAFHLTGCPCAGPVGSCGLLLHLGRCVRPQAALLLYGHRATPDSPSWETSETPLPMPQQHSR
Briefly: Blocking action on slow delayed rectifier potassium current iKs, whole-cell patch-clamp on dog cardiac muscle cells. In kind it is cell-based. The following applies: dog left ventricle cardiac muscle cells; 1 μM nisoldipine and 2 μM E-4031 added; holding potential -40 mV. As to the method: The iKs can be measured selectively in the manner described below: the hearts are quickly removed from anaesthetised dogs and a muscle section from the left ventricle is perfused with collagenase-containing solution via an arterial vessel. The well-dissociated tissue is comminuted and the individualised cardiac muscle cells are investigated electrophysiologically using the “whole-cell patch-clamp” method (cf. O. P. […] The iKs is then determined using the current amplitude immediately after a 5-second pulse protocol of -40 mV holding potential at most +50 mV depolarisation. The iKr (HERG) can be measured selectively in the manner stated below: to measure the iKr, a cell line (human embryonal kidney cells, HEK293; see e.g. American Tissue Culture Collection (=ATCC) No.: CRL-1573) is used, which is stably transfected with the gene for the iKr (HERG) (cf. Z. Zhou et al., Biophysical Journal 74(1) (1998) 230-241). […] The iKr is determined using the current amplitude at -40 mV holding potential immediately after a 500 ms pulse protocol of -75 mV holding potential at most +10 mV depolarisation. That substance concentration at which 50% of the maximum current is blocked (IC50 %) is determined from the inhibitions of the corresponding current at different substance concentrations.
(In general: Patch clamp records ionic current or voltage across a cell membrane.)

As a reminder, the IC50 is the concentration needed to halve the response being measured. A higher IC50 goes with a need for much substance.

For `CCCCN1CC2CN(c3ccc([N+](=O)[O-])cc3[N+](=O)[O-])CC(C1)C2(C)C` [Example 1, 7-(n-Butyl)-3-(2,4-dinitrophenyl)-9,9-dimethyl-3,7-diazabicyclo[3.3.1]nonane], in data set [1], the “Antiarrhythmic action FRP-EC+12 ms” value was determined as 0.6 µmol/L. Also, in the data set on mice, the Minimum toxic dose is recorded as 300 mg/kg. For the same compound, the “Antiarrhythmic action ERP-ED115” value in data set [2] (cumulative doses, dose prolonging ERP to 115% of starting value, heart rate about 150% of normal) is 0.4 µmol/kg. Moreover, the “Vasodepression ED85 DAP” value in data set [2] (dose decreasing diastolic arterial pressure to 85% of starting value, >> = no tendency to vasodepression at the doses tested) is recorded as >>10 μmol/kg. Besides, the “Vasodepression ED85 SAP” value in data set [2] (dose decreasing systolic arterial pressure to 85% of starting value, >> = no tendency to vasodepression at the doses tested) is given as >>10 μmol/kg.

As for `CCCCN1CC2CN(c3ccc(C#N)cc3)CC(C1)C21CCCC1.O=C(O)C(O)C(O)C(=O)O` [Example 4, 7-(n-Butyl)-3-(4-cyanophenyl)-9,9-tetramethylene-3,7-diazabicyclo[3.3.1]nonane Hydrogen Tartrate], the IC50 against iKr (HERG) was found to be 20 nM; on iKs, 700 nM. Further, the Instability is 6/3/3 in data set [3] (0.3 μM) and 6/25/7 in data set [3] (1 μM). For the same compound, the values for the Triangulation in data set [3] (0.3 μM) and in data set [3] (1 μM) were 48/64/62 and 52/79/79, respectively. Further, in data set [1], the “Antiarrhythmic action FRP-EC+12 ms” value is 0.8 µmol/L. The “increase in the fibrillation threshold” value with anaesthetised cats (administration i.v.) was “dosage-dependent, clear, long-lasting increase in the fibrillation threshold”; in the data set on anaesthetised cats (administration p.o.), “dosage-dependent, clear, long-lasting increase in the fibrillation threshold”.
